According to patent publication US8846699B2, “Quinazoline derivatives as a multiplex inhibitor and method for the preparation thereof” (Hanmi Pharm. Co., Ltd., priority 2005, dated 2014):

Key:
VEGFR2 (KDR) = VEGFR2 (KDR) (Homo sapiens (Human), UniProt P35968); assay: VEGFR2 (KDR) enzyme assay, fluorescence polarization; format: biochemical; settings: 5 μM ATP, poly(Glu, Tyr) substrate
Method in brief: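 Autophosphorylation read by fluorescence polarization: VEGFR2 (Proquinase) at 200 ng/10 μl with 5 μM ATP and 10 ng/ml poly(Glu,Tyr) 4:1, in 20 mM HEPES pH 7.4, 5 mM MgCl2, 2 mM MnCl2, 50 μM Na3VO4. Reaction 1 h at room temperature, EDTA stop, then anti-phosphotyrosine antibody/tracer for 30 min in the dark.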

EGFR1 (HER-1) = EGFR1 (HER-1) (Homo sapiens (Human), UniProt P00533); assay: EGFR1 (HER-1) enzyme assay, fluorescence polarization; format: biochemical; settings: 100 μM ATP, poly(Glu, Tyr) substrate
[1] = tested on: breast cancer cell line, SK-Br3; assay: Inhibitory effect on growth of cancer cell line SK-Br3, SRB; format: cell-based; settings: overexpressed EGFR2 (HER-2)
Method in brief: (§1)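 Cells were cultured in DMEM with 10% FBS. Compounds were applied at 10 μM with 10-fold serial dilution to 10^−4, DMSO <1%, for 72 h at 37 °C. Cells were then TCA-fixed and stained with 0.4% SRB, and absorbance was read at 570 nm after solubilisation in 10 mM Tris base.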

[2] = tested on: skin cancer cell line, A431; assay: Inhibitory effect on growth of cancer cell line A431, SRB; format: cell-based; settings: overexpressed EGFR1 (HER-1)
Method in brief: as §1

[3] = tested on: colon and rectal cancer cell line, SW-620; assay: Inhibitory effect on growth of cancer cell line SW-620, SRB; format: cell-based; settings: not having overexpressed EGFR and EGFR2
Method in brief: as §1

[4] = tested on: Human Umbilical Vein Endothelial Cell (HUVEC); assay: Inhibitory effect on growth of human umbilical vein endothelial cell (HUVEC), MTS; format: cell-based; settings: 10 ng/ml VEGF, absorbance 490 nm

VEGFR2 (KDR), sequence (P35968 20-1356): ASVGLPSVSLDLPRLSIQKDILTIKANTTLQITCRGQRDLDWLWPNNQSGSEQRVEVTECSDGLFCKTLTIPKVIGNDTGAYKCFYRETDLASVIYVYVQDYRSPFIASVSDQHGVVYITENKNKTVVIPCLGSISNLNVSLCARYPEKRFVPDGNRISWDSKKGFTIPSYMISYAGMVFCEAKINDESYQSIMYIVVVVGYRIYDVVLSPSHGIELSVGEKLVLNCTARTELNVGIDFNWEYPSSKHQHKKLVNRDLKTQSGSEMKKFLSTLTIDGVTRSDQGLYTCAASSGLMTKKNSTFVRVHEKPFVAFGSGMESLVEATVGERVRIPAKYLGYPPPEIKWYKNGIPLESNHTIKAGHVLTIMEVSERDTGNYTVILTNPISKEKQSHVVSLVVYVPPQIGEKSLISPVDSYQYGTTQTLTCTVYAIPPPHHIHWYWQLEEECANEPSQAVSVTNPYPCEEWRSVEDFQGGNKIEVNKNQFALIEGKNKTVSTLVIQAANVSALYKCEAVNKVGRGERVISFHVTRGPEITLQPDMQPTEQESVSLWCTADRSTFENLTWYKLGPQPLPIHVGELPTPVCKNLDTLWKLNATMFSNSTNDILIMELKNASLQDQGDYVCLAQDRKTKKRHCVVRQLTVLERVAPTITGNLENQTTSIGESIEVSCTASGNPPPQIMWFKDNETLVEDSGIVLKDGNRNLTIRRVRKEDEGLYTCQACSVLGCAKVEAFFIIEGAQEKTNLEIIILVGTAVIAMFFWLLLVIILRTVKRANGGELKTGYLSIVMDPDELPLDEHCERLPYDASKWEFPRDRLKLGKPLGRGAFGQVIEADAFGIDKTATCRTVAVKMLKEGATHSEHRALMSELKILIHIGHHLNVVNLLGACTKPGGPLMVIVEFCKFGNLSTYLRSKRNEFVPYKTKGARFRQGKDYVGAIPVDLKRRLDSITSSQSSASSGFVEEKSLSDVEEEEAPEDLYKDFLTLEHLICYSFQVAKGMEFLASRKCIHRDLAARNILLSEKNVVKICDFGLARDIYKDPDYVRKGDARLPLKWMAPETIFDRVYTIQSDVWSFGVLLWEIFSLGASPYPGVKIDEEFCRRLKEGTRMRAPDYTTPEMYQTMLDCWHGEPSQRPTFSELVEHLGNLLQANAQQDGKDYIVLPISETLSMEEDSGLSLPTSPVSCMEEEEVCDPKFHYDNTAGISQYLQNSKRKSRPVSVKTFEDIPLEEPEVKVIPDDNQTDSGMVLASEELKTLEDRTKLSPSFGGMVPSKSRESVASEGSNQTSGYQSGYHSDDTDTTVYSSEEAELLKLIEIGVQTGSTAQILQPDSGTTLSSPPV

IC50 (VEGFR2 (KDR))	IC50 (EGFR1 (HER-1))	IC50 ([1]; 72 hours)	IC50 ([2]; 72 hours)	IC50 ([3]; 72 hours)	IC50 ([1]; Homo sapiens, SK-BR-3, 72 h)	IC50 ([2]; Homo sapiens, A-431, 72 h)	IC50 ([3]; Homo sapiens, 72 h)	Compound	IC50 ([4]; 96 hours)	IC50 ([4]; Homo sapiens, 96 h)
698 nM	40 nM				288 nM	44 nM	10 µM	C=CC(=O)Nc1cc2c(Nc3ccc(Br)cc3F)ncnc2cc1OCCCNC(=O)CC [Example 87, N-[4-(4-bromo-2-fluoro-phenylamino)-7-(3-propionylamino-propoxy)-quinazolin-6-yl]-acrylamide]		692 nM
79 nM	12 nM				125 nM	40 nM	9.53 µM	C=CC(=O)Nc1cc2c(Nc3ccc(Br)c(Cl)c3F)ncnc2cc1OCCNC(=O)CCN1CCCCC1 [Example 147, N-{4-(4-bromo-3-chloro-2-fluoro-phenylamino)-7-[2-(3-piperidin-1-yl-propionylamino)-ethoxy]-quinazolin-6-yl}-acrylamide]		167 nM
358 nM	13 nM				239 nM	21 nM	10 µM	C=CC(=O)Nc1cc2c(Nc3ccc(Br)cc3F)ncnc2cc1OCCNC(=O)N1CCN(C)CC1 [Example 96, 4-methyl-piperazine-1-carboxylic acid {2-[6-acryloylamino-4-(4-bromo-2-fluoro-phenylamino)-quinazolin-7-yloxy]-ethyl}-amide]		352 nM
357 nM	80 nM				106 nM	82 nM	0.721 µM	C=CC(=O)Nc1cc2c(Nc3cc(OC)c(Cl)cc3F)ncnc2cc1OCCNC(C)=O [Example 129, N-[7-(2-acetylamino-ethoxy)-4-(4-chloro-2-fluoro-5-methoxy-phenylamino)-quinazolin-6-yl]-acrylamide]		350 nM
657 nM	40 nM				109 nM	48 nM	2.83 µM	C=CC(=O)Nc1cc2c(Nc3cc(Cl)c(Cl)cc3F)ncnc2cc1OCCNC(=O)CS(C)(=O)=O [Example 139, N-{4-(4,5-dichloro-2-fluoro-phenylamino)-7-[2-(2-methanesulfonyl-acetylamino)-ethoxy]-quinazolin-6-yl}-acrylamide]		682 nM
129 nM	47 nM				437 nM	57 nM	0.729 µM	C=CC(=O)Nc1cc2c(Nc3ccc(Br)cc3F)ncnc2cc1OCCNC(=O)c1cccs1 [Example 92, thiophene-2-carboxylic acid {2-[6-acryloylamino-4-(4-bromo-2-fluoro-phenylamino)-quinazolin-7-yloxy]-ethyl}-amide]		258 nM
209 nM	24 nM				67 nM	27 nM	9.57 µM	C=CC(=O)Nc1cc2c(Nc3ccc(Br)cc3F)ncnc2cc1OCCNC(=O)CS(C)(=O)=O [Example 47, N-{4-(4-bromo-2-fluoro-phenylamino)-7-[2-(2-methanesulfonyl-acetylamino)-ethoxy]-quinazolin-6-yl}-acrylamide]		269 nM
954 nM	652 nM				694 nM	596 nM	10 µM	C=CC(=O)Nc1cc2c(Nc3ccc(Br)cc3F)ncnc2cc1OCC(=O)NCCN(CC)CC [Example 65, N-{4-(4-bromo-2-fluoro-phenylamino)-7-[(2-diethylamino-ethylcarbamoyl)-methoxy]-quinazolin-6-yl}-acrylamide]		964 nM
158 nM	29 nM				60 nM	35 nM	10 µM	C=CC(=O)Nc1cc2c(Nc3ccc(Br)cc3F)ncnc2cc1OC[C@@H](C)NC(C)=O [Example 82, (R)—N-[7-(2-acetylamino-propoxy)-4-(4-bromo-2-fluoro-phenylamino)-quinazolin-6-yl]-acrylamide]		205 nM
853 nM	196 nM				311 nM	264 nM	2.8 µM	C=CC(=O)Nc1cc2c(Nc3ccc(Br)cc3F)ncnc2cc1OCCNC(=O)C1CCCN1C(=O)CC (stereo not drawn) [Example 106, 1-propionyl-pyrrolidine-2-carboxylic acid {2-[6-acryloylamino-4-(4-bromo-2-fluoro-phenylamino)-quinazolin-7-yloxy]-ethyl}-amide]		951 nM

Second part, the compound before the results:

Compound	IC50 (VEGFR2 (KDR))	IC50 (EGFR1 (HER-1))	IC50 ([1]; 72 hours)	IC50 ([2]; 72 hours)	IC50 ([3]; 72 hours)	IC50 ([1]; Homo sapiens, SK-BR-3, 72 h)	IC50 ([2]; Homo sapiens, A-431, 72 h)	IC50 ([3]; Homo sapiens, 72 h)	IC50 ([4]; 96 hours)	IC50 ([4]; Homo sapiens, 96 h)
N-{2-[6-acryloylamino-4-(4-bromo-2-fluoro-phenylamino)-quinazolin-7-yloxy]-ethyl}-3-dimethylamino-butylamide [Example 75]	658 nM	325 nM	658 nM	452 nM	2.66 µM				690 nM	
C=CC(=O)Nc1cc2c(Nc3ccc(Br)cc3F)ncnc2cc1OCCNC(=O)CC [Example 27, N-[4-(4-bromo-2-fluoro-phenylamino)-7-(2-propionylamino-ethoxy)-quinazolin-6-yl]-acrylamide]	250 nM	3 nM				50 nM	30 nM	9.56 µM		96 nM
C=CC(=O)Nc1cc2c(Nc3ccc(Br)cc3F)ncnc2cc1OCCN(C)C(C)=O [Example 42, N-[7-[2-(acetyl-methyl-amino)-ethoxy]-4-(4-bromo-2-fluoro-phenylamino)-quinazolin-6-yl]-acrylamide]	687 nM	59 nM				142 nM	63 nM	9.56 µM		786 nM
C=CC(=O)Nc1cc2c(Nc3ccc(Br)cc3F)ncnc2cc1OCCCNC(C)=O [Example 13, N-[7-(3-acetylamino-propoxy)-4-(4-bromo-2-fluoro-phenylamino)-quinazolin-6-yl]-acrylamide]	157 nM	4 nM				45 nM	28 nM	10 µM		79 nM
C=CC(=O)Nc1cc2c(Nc3ccc(Br)cc3F)ncnc2cc1OCC1CCN(C(C)=O)CC1 [Example 1, N-[7-(1-acetyl-piperidin-4-ylmethoxy)-4-(4-bromo-2-fluoro-phenylamino)-quinazolin-6-yl]-acrylamide]	131 nM	3 nM				283 nM	48 nM	3.06 µM		85 nM
C=CC(=O)Nc1cc2c(Nc3ccc(Br)cc3F)ncnc2cc1OCCNC(=O)NC(C)C [Example 37, N-{4-(4-bromo-2-fluoro-phenylamino)-7-[2-(3-isopropyl-ureido)-ethoxy]-quinazolin-6-yl}-acrylamide]	895 nM	36 nM				65 nM	31 nM	4.54 µM		682 nM
C=CC(=O)Nc1cc2c(Nc3ccc(F)c(F)c3F)ncnc2cc1OCC1CCN(C(C)=O)CC1 [Example 7, N-[7-(1-acetyl-piperidin-4-ylmethoxy)-4-(2,3,4-trifluoro-phenylamino)-quinazolin-6-yl]-acrylamide]	250 nM	26 nM				67 nM	38 nM	9.57 µM		99 nM
C=CC(=O)Nc1cc2c(Nc3ccc(Br)cc3F)ncnc2cc1OCCCNC(=O)C(F)(F)F [Example 14, N-{4-(4-bromo-2-fluoro-phenylamino)-7-[3-(2,2,2-trifluoro-acetylamino)-propoxy]-quinazolin-6-yl}-acrylamide]	591 nM	59 nM				57 nM	97 nM	10 µM		286 nM
